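Briefly, cells in 96-well plates were exposed to five compound concentrations for 48 h, and endpoints were estimated by linear interpolation. The concentration for 50% growth inhibition is given as GI50. TGI: concentration producing complete growth inhibition.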

Assay in all cases: NCI anticancer screen, dose series, 48 h
For experiment [1], the system named is CAKI-1 renal.
Experiment [2] deals with HCC-2998 colon.
Experiment [3] deals with HCT-15 colon.
The subject of experiment [4] is HOP-62 NSCLC.
The subject of experiment [5] is HS 578T breast.
The test system of experiment [6] is MCF7 breast.
For experiment [7], the system named is OVCAR-4 ovarian.
In experiment [8] the test system is SK-MEL-28 melanoma.
Experiment [9] deals with SK-OV-3 ovarian.
For experiment [10], the system named is SNB-75 CNS.

Take `COC1=C(C)C(=O)C2=C(C1=O)C1C3CC4=C(C(=O)C(OC)=C(C)C4=O)C(CNC(=O)C(C)O)N3C(C#N)C(C2)N1C` (configuration not stated): the TGI was 2 µM in experiment [1]; under 0.0272 µM in experiment [2]; 10.5 µM in experiment [3]; under 0.0282 µM in [4]; under 0.01 µM in [5]; 2.25 µM in experiment [6]. Moreover, the TGI in experiment [7] is 0.334 µM; in experiment [8], under 0.0217 µM; in experiment [9] it was 1.2 µM; in experiment [10], 0.0171 µM.

Regarding `Cc1cc(OCCOCCC(F)(F)P(=O)(O)O)ccc1CCc1cnc2c(N)nc3cc(CCC(=O)O)ccc3c2c1`, the GI50 was 72.7 µM in [1]; over 100 µM in experiment [2]; over 100 µM in experiment [3]; over 100 µM in experiment [4]; 26.6 µM in experiment [5]; over 100 µM in [6]. Further, the GI50 in experiment [7] was over 100 µM; in experiment [8] it was over 100 µM; in experiment [9], over 100 µM; in [10], 14 µM. The TGI in experiment [1], in [2], in [3], in [4], in [5] and in experiment [6] was over 100 µM each time. Also, the TGI in experiment [7], in experiment [8], in experiment [9] and in experiment [10] was over 100 µM each time.

With `NC(=O)CC(N)C(=O)NC(Cc1ccccc1)C(=O)NC(Cc1ccccc1)NC(=O)C(Cc1c[nH]c2ccccc12)C(=O)O` (configuration not stated), the TGI in experiment [1], in [2], in experiment [3], in experiment [4], in experiment [5] and in [6] was over 100 µM each time. Besides, the TGI in [7], in experiment [8], in experiment [9] and in [10] was over 100 µM in each case.

Consider `O=[N+]([O-])c1cc(F)ccc1S(=O)(=O)c1ccccc1`, for which the TGI in experiment [1], in [2], in experiment [3], in [4], in experiment [5] and in [6] was over 10 µM throughout. Also, the TGI in [7], in experiment [8], in experiment [9] and in experiment [10] was over 10 µM in each case.

For `COC1=C(Cl)C(=O)c2c(O)ccc(O)c2C1=O`, the TGI was determined as 1.6 µM in [1]; 27.3 µM in [2]; 3.23 µM in experiment [3]; 2.31 µM in [4]; 4.96 µM in [5]; 3.29 µM in experiment [6]. Moreover, the TGI in [7] was determined as 3.66 µM; in experiment [8], 6.73 µM; in [9] it was 29.4 µM; in [10], 17.1 µM.

For `CCSc1nc(=S)n(-c2ccccc2)c(C)c1C(C)=O`, the TGI in experiment [1], in [2], in experiment [3], in [4], in experiment [5] and in experiment [6] was over 100 µM in each case. The TGI in experiment [7], in experiment [8], in [9] and in [10] was over 100 µM throughout.

On to `CC(C)(C)NC(=O)/C(=C\Sc1ccccc1)c1ccccc1`, for which the TGI in experiment [1], in experiment [2], in experiment [3], in experiment [4], in [5] and in [6] was over 100 µM in each case. The TGI in experiment [7], in experiment [8], in [9] and in experiment [10] was over 100 µM each time.

Take `S=c1nc(N/N=C/c2cccs2)c2cn[nH]c2[nH]1`: the TGI in experiment [1] was 42.9 µM; in [2], 27.8 µM; in experiment [3], 64.1 µM; in experiment [4], 69 µM; in [5], over 100 µM; in experiment [6], 28.3 µM. In addition, the TGI in experiment [7], in experiment [8], in experiment [9] and in experiment [10] was over 100 µM each time.

`COC(=O)c1ccccc1/C=C1\Cc2ccc3c(c2C1=O)CCCC3`: the TGI in [1], in experiment [2], in [3], in experiment [4], in experiment [5] and in experiment [6] was over 100 µM throughout. Moreover, the TGI in [7], in experiment [8], in experiment [9] and in experiment [10] was over 100 µM throughout.

On to `CCCCc1ccc(Nc2nc(Cl)c3ccn(C4CC(Oc5ccc(C)cc5)C(COc5ccc(C)cc5)O4)c3n2)cc1` (configuration not stated), for which the TGI is over 46.4 µM in [1]; over 46.4 µM in experiment [2]; over 46.4 µM in [3]; over 100 µM in experiment [4]; over 100 µM in experiment [5]; over 46.4 µM in [6]. Moreover, the TGI was over 31.6 µM in [7], over 100 µM in [8], over 46.4 µM in experiment [9] and over 100 µM in [10].

Consider `Cc1nc2c(cc1OCc1ccccc1)C(=O)C1=C(C2=O)C2OC(=O)CC2OC1(C)C` (configuration not stated), for which the TGI worked out at 1.67 µM in experiment [1]; 1.91 µM in experiment [2]; 0.634 µM in [3]; 2.87 µM in experiment [4]; 0.583 µM in experiment [5]; 0.339 µM in experiment [6]. In addition, the TGI in [7] came to 1.94 µM; in experiment [8] it was 1.14 µM; in experiment [10] it was 3.94 µM.

Take `O=c1[nH]c2nccn2c2c1SCCN2`: the TGI in experiment [1], in experiment [2], in experiment [3], in [4], in [5] and in experiment [6] was over 100 µM each time. In addition, the TGI in experiment [7], in experiment [8] and in [10] was over 100 µM in each case.

Consider `C=CC(=O)N1C/C(=C\c2ccc([N+](=O)[O-])cc2)C(=O)/C(=C/c2ccc([N+](=O)[O-])cc2)C1`, for which the TGI in experiment [1] was determined as 0.801 µM; in [2] it was 1.21 µM; in experiment [3] it was 0.272 µM; in [4], 0.375 µM; in experiment [5], 0.804 µM; in experiment [6], 1.21 µM. The TGI in experiment [7] is 1.33 µM; in experiment [8], 1.74 µM; in [9], 2.85 µM; in [10], 1.16 µM.

In the case of `O=[N+]([O-])/C=C(\CS(=O)(=O)c1ccccc1)c1ccc2c(c1)OCO2`, the TGI in experiment [1] was 93.5 µM; in experiment [2] it was over 100 µM; in experiment [3] it was over 100 µM; in [4] it was over 100 µM; in [5], over 100 µM; in [6] it was over 100 µM. For the same molecule, the TGI in experiment [8], in experiment [9] and in experiment [10] was over 100 µM in each case.

Consider `CCC(CC)(CO)CNc1cc(Cl)nc(N)n1`, for which the TGI in [1], in experiment [3], in experiment [4], in [5], in [6] and in experiment [7] was over 100 µM each time. Besides, the TGI in experiment [8], in experiment [9] and in [10] was over 100 µM throughout.

`Cc1ccc(-c2cc[n+]3c(n2)oc2ccccc23)cc1`: the TGI in [1] is over 100 µM; in experiment [2], over 100 µM; in [3] it was over 100 µM; in experiment [5] it was 81.5 µM; in experiment [6] it was over 100 µM; in experiment [7], 48.8 µM. The TGI in [8] was 57.8 µM; in experiment [9], over 100 µM; in experiment [10] it was 65.3 µM.

For the molecule `CN(C)CCOc1ccc(-c2c(Oc3ccccc3)c(=O)oc3ccccc23)cc1`, the TGI stood at 48.7 µM in experiment [1]; 20.8 µM in experiment [2]; 22.6 µM in [3]; 35.2 µM in experiment [5]; 17.5 µM in [6]; 59 µM in experiment [7]. Further, the TGI was found to be 25.5 µM in experiment [8] and 23.6 µM in experiment [10].

As for `Cc1cc2c(cc1C)C(=O)C1(C2)Cc2cc3c(cc2C1=O)CCC3` (configuration not stated), the TGI in experiment [1], in experiment [2], in experiment [3], in experiment [5], in experiment [6] and in [7] was over 100 µM in each case. Moreover, the TGI in experiment [8], in experiment [9] and in experiment [10] was over 100 µM throughout.

For `O=c1[nH]nc(Cc2ccccc2)n1/N=C/c1cccnc1`, the TGI in [1], in [2], in experiment [3], in experiment [4], in experiment [5] and in [6] was over 100 µM each time. In addition, the TGI in experiment [7], in [8] and in experiment [10] was over 100 µM in each case.

For `COc1cc(C2C3=C(CCCC3=O)N(c3ccc(C)cc3)C3=C2C(=O)CCC3)c([N+](=O)[O-])cc1OC`, the TGI in experiment [1], in experiment [2], in [3], in experiment [5], in experiment [6] and in experiment [7] was over 100 µM each time. The TGI in experiment [8], in [9] and in [10] was over 100 µM each time.

As to `CC(C)C(=O)/C=C/S/C=C/C(=O)C(C)C`, the TGI was 10.7 µM in experiment [1]; 12.2 µM in experiment [3]; 86.9 µM in [4]; 95.7 µM in experiment [5]; over 100 µM in experiment [6]; over 100 µM in experiment [7]. Moreover, the TGI in experiment [8] is 21.1 µM; in experiment [9], over 100 µM; in experiment [10], over 100 µM.

With `CCCCc1ccc(Nc2nc(Cl)c3c(ncn3C3CC(Oc4ccc(C)cc4)C(COc4ccc(C)cc4)O3)n2)cc1` (configuration not stated), the TGI in experiment [1], in experiment [2], in [3], in experiment [4], in experiment [5] and in experiment [6] was over 100 µM each time. Moreover, the TGI in [7] was over 100 µM; in experiment [9], over 100 µM; in [10] it was 99.2 µM.

`CN1CCc2c(sc3ncn(Nc4ccc(Cl)cc4)c(=N)c23)C1`: the TGI in experiment [1], in experiment [3], in experiment [4], in experiment [5], in [6] and in experiment [7] was over 100 µM throughout. In addition, the TGI in [8], in experiment [9] and in experiment [10] was over 100 µM in each case.

As for `CC(=O)O[C@H]1C(=O)[C@@]2(C)[C@H]([C@H](OC(=O)c3ccccc3)[C@]3(O)C[C@H](OC(=O)[C@H](O)[C@@H](NC(=O)c4ccccc4)c4cccc(N(C)C)c4)C(C)=C1C3(C)C)[C@]1(OC(C)=O)CO[C@@H]1C[C@@H]2O`, the TGI is over 75 µM in experiment [1]; 74.5 µM in experiment [3]; over 18.3 µM in [4]; 0.603 µM in experiment [5]; over 55.2 µM in [6]; over 43.6 µM in experiment [7]. In addition, the TGI was over 75 µM in experiment [8], over 28.6 µM in [9] and over 36.1 µM in [10].

For the molecule `O=C(N/N=C\c1cccc2ccccc12)Nc1cccc2ccccc12`, the TGI was 83.4 µM in experiment [1]; over 100 µM in experiment [2]; over 100 µM in [3]; 23.1 µM in experiment [4]; over 100 µM in experiment [5]; over 100 µM in experiment [6]. For the same molecule, the figures for the TGI in experiment [8] and in experiment [10] were over 100 µM and 35.2 µM, respectively.

In the case of `CCCCSC1=N/C(=C\c2ccc(N(C)C)cc2)C(=O)N1`, the TGI was over 100 µM in experiment [1]; over 100 µM in experiment [3]; over 100 µM in experiment [4]; 92.1 µM in experiment [5]; over 100 µM in experiment [6]; over 100 µM in experiment [7]. The TGI in experiment [8], in experiment [9] and in experiment [10] was over 100 µM throughout.

Turning to `CCN(CC)c1ccc(/C=C2\CCc3ccc([N+](=O)[O-])cc3C2=O)cc1`, the TGI in [1], in [2], in [3], in experiment [5], in experiment [6] and in [7] was over 100 µM throughout. Also, the figures for the TGI in [8], in experiment [9] and in experiment [10] were over 100 µM, over 100 µM and 24.3 µM, respectively.
